Residues, ends and D or L forms follow the SMILES beside them. *: point of attachment. Cbz = O=C(OCc1ccccc1)*
Molecular target: T1, Calpain-1 catalytic subunit (Sus scrofa, UniProt P35750)
T1 sequence (P35750 whole entry): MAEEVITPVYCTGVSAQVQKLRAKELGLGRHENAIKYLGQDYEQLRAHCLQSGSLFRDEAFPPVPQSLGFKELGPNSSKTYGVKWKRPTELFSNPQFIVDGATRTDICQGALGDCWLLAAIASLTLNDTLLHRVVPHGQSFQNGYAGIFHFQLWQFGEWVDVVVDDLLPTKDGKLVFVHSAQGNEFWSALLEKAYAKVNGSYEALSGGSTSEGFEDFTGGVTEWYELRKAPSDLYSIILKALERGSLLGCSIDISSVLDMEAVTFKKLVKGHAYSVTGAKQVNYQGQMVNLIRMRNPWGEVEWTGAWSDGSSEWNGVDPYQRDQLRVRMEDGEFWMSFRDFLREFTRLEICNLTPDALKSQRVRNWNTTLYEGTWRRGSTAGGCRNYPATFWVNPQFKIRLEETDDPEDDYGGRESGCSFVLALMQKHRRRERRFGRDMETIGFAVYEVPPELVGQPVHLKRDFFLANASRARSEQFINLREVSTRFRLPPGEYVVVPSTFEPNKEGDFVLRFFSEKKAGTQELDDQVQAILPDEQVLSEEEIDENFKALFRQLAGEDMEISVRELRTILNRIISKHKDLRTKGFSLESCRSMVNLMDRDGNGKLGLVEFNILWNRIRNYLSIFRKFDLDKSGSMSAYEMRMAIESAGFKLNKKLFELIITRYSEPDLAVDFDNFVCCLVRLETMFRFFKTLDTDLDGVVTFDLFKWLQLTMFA
Assay: Inhibition of pig erythrocyte mu-calpain by fluorometric assay

Ki [nM] | SMILES
1200 | COC(=O)C(=O)C(Cc1ccccc1)NC(=O)[C@H](CC(C)C)NC(=O)CC1c2ccccc2-c2ccccc21 (mixture of isomers)
8 | CC(C)C[C@H](NC(=O)CC1c2ccccc2-c2ccccc21)C(=O)NC(Cc1ccccc1)C(=O)C(=O)O (mixture of isomers)
108 | CC(C)C[C@H](NC(=O)C(c1ccccc1)c1ccccc1)C(=O)NC(Cc1ccccc1)C(=O)C(=O)O (mixture of isomers)
450 | COC(=O)C(=O)C(Cc1ccccc1)NC(=O)[C@H](CC(C)C)NC(=O)CC12CC3CC(CC(C3)C1)C2 (mixture of isomers)
63 | CC(C)C[C@H](NC(=O)CC(c1ccccc1)c1ccccc1)C(=O)NC(Cc1ccccc1)C(=O)C(=O)O (mixture of isomers)
944 | COC(=O)C(=O)C(Cc1ccccc1)NC(=O)[C@H](CC(C)C)NC(=O)C(c1ccccc1)c1ccccc1 (mixture of isomers)

Continued, compound first:

SMILES | Ki [nM]
CC(C)C[C@H](NC(=O)CCC1CCCCC1)C(=O)NC(Cc1ccccc1)C(=O)C(=O)O (mixture of isomers) | 50
CC(C)C[C@H](NC(=O)CC12CC3CC(CC(C3)C1)C2)C(=O)NC(Cc1ccccc1)C(=O)C(=O)O (mixture of isomers) | 41
COC(=O)C(=O)C(Cc1ccccc1)NC(=O)[C@H](CC(C)C)NC(=O)CCC1CCCCC1 (mixture of isomers) | 1050
CC(C)[C@H](NC(=O)OCc1ccccc1)C(=O)N[C@H](C=O)Cc1ccccc1 (Cbz-Val-Phe-aldehyde) | 10

Reference: ChEMBL document CHEMBL1155134, “Structural basis for the potent calpain inhibitory activity of peptidyl alpha-ketoacids” (J Med Chem, 2008)
